This is an account of results in ChEMBL document CHEMBL1250502, “An alignment independent 3D QSAR study of the antiproliferative activity of 1,2,4,5-tetraoxanes” (Eur J Med Chem, 2010).

In one assay the test system is HeLa. As to the kind of experiment: Cytotoxicity against human HeLa cells. The class given is functional, cell-based. The note with it: for IC50: Homo sapiens, HeLa; for pIC50: hela.
Assay [1] can be described thus: Cytotoxicity against human Fem-X cells. The class given is functional, cell-based. The settings on record: for IC50: Homo sapiens, Fem-X; for pIC50: fem-x.

For `CC(=O)O[C@H]1C[C@H]2[C@@H](CC[C@@H]3C[C@]4(CC[C@@]32C)OO[C@]2(CC[C@@]3(C)[C@H](CC[C@@H]5[C@@H]3C[C@H](OC(C)=O)[C@]3(C)[C@@H]([C@H](C)CCC(=O)N6CCCCC6)CC[C@@H]53)C2)OO4)[C@@H]2CC[C@H]([C@H](C)CCC(=O)N3CCCCC3)[C@@]12C`, the IC50 in the assay on HeLa (read-out: pIC50 (converted)) is 120 µM; in assay [1] (read-out: pIC50 (converted)), 102 µM.
As to `CCNC(=O)CC[C@@H](C)[C@H]1CC[C@H]2[C@@H]3CC[C@@H]4CC5(CC[C@]4(C)[C@H]3C[C@H](OC(C)=O)[C@]12C)OOC1(CCC(CC)CC1)OO5` (some centres undefined), the IC50 was 6.7 µM in the assay on HeLa (read-out: IC50), 6.92 µM with HeLa (read-out: pIC50 (converted)), 7 µM in assay [1] (read-out: IC50) and 6.76 µM in assay [1] (read-out: pIC50 (converted)).
`CC(=O)O[C@H]1C[C@H]2[C@@H](CC[C@@H]3CC4(CC[C@@]32C)OOC2(CCCCC2)OO4)[C@@H]2CC[C@H]([C@H](C)CCC(=O)O)[C@@]12C`: the IC50 is 6.92 µM with HeLa (read-out: pIC50 (converted)) and 25.1 µM in assay [1] (read-out: pIC50 (converted)).
Consider `CC(=O)O[C@H]1C[C@H]2[C@@H](CC[C@@H]3C[C@]4(CC[C@@]32C)OO[C@@]2(CC[C@@]3(C)[C@H](CC[C@@H]5[C@@H]3C[C@H](OC(C)=O)[C@]3(C)[C@@H]([C@H](C)CCC(=O)N6CCCCC6)CC[C@@H]53)C2)OO4)[C@@H]2CC[C@H]([C@H](C)CCC(=O)N3CCCCC3)[C@@]12C`, for which the IC50 in the assay with HeLa (read-out: pIC50 (converted)) was 89.1 µM; in assay [1] (read-out: pIC50 (converted)), 79.4 µM.
For `O=C(O)C1CCC2(CC1)OOC1(CCCCC1)OO2`, the values for the IC50 (with HeLa (read-out: pIC50 (converted)); in assay [1] (read-out: pIC50 (converted))) were 120 µM and 155 µM, respectively.
With `CC(=O)O[C@H]1C[C@H]2[C@@H](CC[C@@H]3CC4(CC[C@@]32C)OOC2(CCCCC2)OO4)[C@@H]2CC[C@H]([C@H](C)CCC(N)=O)[C@@]12C`, the IC50 was 5.25 µM in the assay on HeLa (read-out: pIC50 (converted)) and 6.03 µM in assay [1] (read-out: pIC50 (converted)).
`CN(C)CCNC(=O)C1CCC2(CC1)OOC1(CCCCC1)OO2`: the figures for the IC50 (in the assay with HeLa (read-out: pIC50 (converted)); in assay [1] (read-out: pIC50 (converted))) were 135 µM and 120 µM, respectively.
On the same counts, the results for `CCCNC(=O)CC[C@@H](C)[C@H]1CC[C@H]2[C@@H]3CC[C@@H]4C[C@]5(CC[C@]4(C)[C@H]3C[C@H](OC(C)=O)[C@]12C)OO[C@]1(CC[C@@]2(C)[C@H](CC[C@@H]3[C@@H]2C[C@H](OC(C)=O)[C@]2(C)[C@@H]([C@H](C)CCC(=O)NCCC)CC[C@@H]32)C1)OO5` are 8.32 µM and 25.7 µM.
For the compound `CCC1CCC2(CC1)OOC1(CC[C@@]3(C)[C@H](CC[C@@H]4[C@@H]3C[C@H](OC(C)=O)[C@]3(C)[C@@H]([C@H](C)CCC(=O)NC)CC[C@@H]43)C1)OO2` (some centres undefined), the IC50 is 6.9 µM with HeLa (read-out: IC50), 4.9 µM in the assay with HeLa (read-out: pIC50 (converted)), 8.82 µM in assay [1] (read-out: IC50) and 6.92 µM in assay [1] (read-out: pIC50 (converted)).
`COC(=O)CC[C@@H](C)[C@H]1CC[C@H]2[C@@H]3CC[C@@H]4CC5(CC[C@]4(C)[C@H]3C[C@H](OC(C)=O)[C@]12C)OOC1(CCC2(CCCC2)CC1)OO5`: the IC50 is 10.7 µM with HeLa (read-out: pIC50 (converted)) and 42.7 µM in assay [1] (read-out: pIC50 (converted)).
The like results for `CC(=O)O[C@H]1C[C@H]2[C@@H](CC[C@@H]3CC4(CC[C@@]32C)OOC2(CCCCC2)OO4)[C@@H]2CC[C@H]([C@H](C)CCC(=O)N3CCCCC3)[C@@]12C` were, in that order, 7.24 µM and 9.12 µM.
On to `CC(=O)O[C@H]1C[C@H]2[C@@H](CC[C@@H]3C[C@]4(CC[C@@]32C)OO[C@]2(CC[C@@]3(C)[C@H](CC[C@@H]5[C@@H]3C[C@H](OC(C)=O)[C@]3(C)[C@@H]([C@H](C)CCC(N)=O)CC[C@@H]53)C2)OO4)[C@@H]2CC[C@H]([C@H](C)CCC(N)=O)[C@@]12C`, for which the IC50 is 6.03 µM with HeLa (read-out: pIC50 (converted)) and 6.17 µM in assay [1] (read-out: pIC50 (converted)).
A word on the pIC50: it is −log10 of the IC50, conventionally taken in molar units. Read a low pIC50 as a large IC50. For the compound `COC(=O)CC[C@@H](C)[C@H]1CC[C@H]2[C@@H]3CC[C@@H]4CC5(CC[C@]4(C)[C@H]3C[C@H](OC(C)=O)[C@]12C)OOC1(CCC(C)CC1)OO5` (stereo in doubt; 13), the pIC50 in the assay with HeLa is reported as 4.96; in assay [1], 4.13.
Consider `CC(=O)O[C@H]1C[C@H]2[C@@H](CC[C@@H]3C[C@]4(CC[C@@]32C)OO[C@@]2(CC[C@@]3(C)[C@H](CC[C@@H]5[C@@H]3C[C@H](OC(C)=O)[C@]3(C)[C@@H]([C@H](C)CCC=O)CC[C@@H]53)C2)OO4)[C@@H]2CC[C@H]([C@H](C)CCC=O)[C@@]12C`, for which the IC50 with HeLa (read-out: pIC50 (converted)) was 3.72 µM; in assay [1] (read-out: pIC50 (converted)) it was 3.09 µM.
Take `COC(=O)CC[C@@H](C)[C@H]1CC[C@H]2[C@@H]3CC[C@@H]4CC5(CC[C@]4(C)[C@H]3C[C@H](OC(C)=O)[C@]12C)OOC1(CCC(C)CC1)OO5` (stereo in doubt; 14): the pIC50 with HeLa is on record as 5.3; in assay [1], 4.6.
As for `COC(=O)C1CCC2(CC1)OOC1(CCCCC1)OO2`, the IC50 in the assay with HeLa (read-out: pIC50 (converted)) is 75.9 µM; in assay [1] (read-out: pIC50 (converted)) it was 72.4 µM.
On to `CCC1CCC2(CC1)OOC1(CC[C@@]3(C)[C@H](CC[C@@H]4[C@@H]3C[C@H](OC(C)=O)[C@]3(C)[C@@H]([C@H](C)CCC(N)=O)CC[C@@H]43)C1)OO2` (some centres undefined), for which the IC50 with HeLa (read-out: IC50) was 5.3 µM; with HeLa (read-out: pIC50 (converted)) it was 5.25 µM; in assay [1] (read-out: IC50), 4.3 µM; in assay [1] (read-out: pIC50 (converted)), 5.01 µM.
With `NC(=O)C1CCC2(CC1)OOC1(CCCCC1)OO2`, the results for the IC50 (with HeLa (read-out: pIC50 (converted)); in assay [1] (read-out: pIC50 (converted))) were 115 µM and 120 µM, respectively.
Turning to `COC(=O)CC[C@@H](C)[C@H]1CC[C@H]2[C@@H]3CC[C@@H]4CC5(CC[C@]4(C)[C@H]3C[C@H](OC(C)=O)[C@]12C)OOC1(CCCCC1)OO5`, the IC50 in the assay on HeLa (read-out: pIC50 (converted)) was 18.6 µM; in assay [1] (read-out: pIC50 (converted)), 52.5 µM.
As for `CCCN(CCC)C(=O)CC[C@@H](C)[C@H]1CC[C@H]2[C@@H]3CC[C@@H]4CC5(CC[C@]4(C)[C@H]3C[C@H](OC(C)=O)[C@]12C)OOC1(CCCCC1)OO5`, the IC50 in the assay with HeLa (read-out: pIC50 (converted)) was 28.2 µM; in assay [1] (read-out: pIC50 (converted)), 38.9 µM.
For the compound `CCNC(=O)CC[C@H](C)[C@H]1CC[C@H]2[C@@H]3CC[C@@H]4CC5(CC[C@]4(C)[C@H]3C[C@H](OC(C)=O)[C@]12C)OOC1(CCC(CC)CC1)OO5` (some centres undefined), the IC50 in the assay with HeLa (read-out: IC50) was 6.9 µM; in the assay with HeLa (read-out: pIC50 (converted)) it was 6.92 µM; in assay [1] (read-out: IC50), 6.7 µM; in assay [1] (read-out: pIC50 (converted)), 8.91 µM.
For `COC(=O)CC[C@@H](C)[C@H]1CC[C@H]2[C@@H]3CC[C@@H]4CC5(CC[C@]4(C)[C@H]3C[C@H](OC(C)=O)[C@]12C)OOC1(CCC2(CCCCCCC2)CC1)OO5`, the IC50 with HeLa (read-out: pIC50 (converted)) is 10.2 µM; in assay [1] (read-out: pIC50 (converted)) it was 51.3 µM.
For `COC(=O)CC[C@@H](C)[C@H]1CC[C@H]2[C@@H]3CC[C@@H]4C[C@]5(CC[C@]4(C)[C@H]3C[C@H](OC(C)=O)[C@]12C)OO[C@]1(CC[C@@]2(C)[C@H](CC[C@@H]3[C@@H]2C[C@H](OC(C)=O)[C@]2(C)[C@@H]([C@H](C)CCC(=O)OC)CC[C@@H]32)C1)OO5`, the IC50 is 20.4 µM in the assay on HeLa (read-out: pIC50 (converted)) and 19.5 µM in assay [1] (read-out: pIC50 (converted)).
As to `CCCNC(=O)CC[C@@H](C)[C@H]1CC[C@H]2[C@@H]3CC[C@@H]4CC5(CC[C@]4(C)[C@H]3C[C@H](OC(C)=O)[C@]12C)OOC1(CCCCC1)OO5`, the IC50 is 6.46 µM with HeLa (read-out: pIC50 (converted)) and 13.2 µM in assay [1] (read-out: pIC50 (converted)).
The like results for `CCCNC(=O)CC[C@@H](C)[C@H]1CC[C@H]2[C@@H]3CC[C@@H]4C[C@]5(CC[C@]4(C)[C@H]3C[C@H](OC(C)=O)[C@]12C)OO[C@@]1(CC[C@@]2(C)[C@H](CC[C@@H]3[C@@H]2C[C@H](OC(C)=O)[C@]2(C)[C@@H]([C@H](C)CCC(=O)NCCC)CC[C@@H]32)C1)OO5` were, in that order, 33.1 µM and 22.9 µM.
For `CC(=O)O[C@H]1C[C@H]2[C@@H](CC[C@@H]3C[C@]4(CC[C@@]32C)OO[C@]2(CC[C@@]3(C)[C@H](CC[C@@H]5[C@@H]3C[C@H](OC(C)=O)[C@]3(C)[C@@H]([C@H](C)CCC(=O)O)CC[C@@H]53)C2)OO4)[C@@H]2CC[C@H]([C@H](C)CCC(=O)O)[C@@]12C`, the IC50 was 9.12 µM in the assay on HeLa (read-out: pIC50 (converted)) and 7.59 µM in assay [1] (read-out: pIC50 (converted)).
For the compound `COC(=O)CNC(=O)CC[C@@H](C)[C@H]1CC[C@H]2[C@@H]3CC[C@@H]4C[C@]5(CC[C@]4(C)[C@H]3C[C@H](OC(C)=O)[C@]12C)OO[C@]1(CC[C@@]2(C)[C@H](CC[C@@H]3[C@@H]2C[C@H](OC(C)=O)[C@]2(C)[C@@H]([C@H](C)CCC(=O)NCC(=O)OC)CC[C@@H]32)C1)OO5`, the values for the IC50 (in the assay with HeLa (read-out: pIC50 (converted)); in assay [1] (read-out: pIC50 (converted))) were 3.63 µM and 4.68 µM, respectively.
On to `CCC1CCC2(CC1)OOC1(CC[C@@]3(C)[C@H](CC[C@@H]4[C@@H]3C[C@H](OC(C)=O)[C@]3(C)[C@@H]([C@@H](C)CCC(N)=O)CC[C@@H]43)C1)OO2` (some centres undefined), for which the IC50 was 4.9 µM in the assay with HeLa (read-out: IC50), 4.07 µM in the assay with HeLa (read-out: pIC50 (converted)), 4.5 µM in assay [1] (read-out: IC50) and 4.27 µM in assay [1] (read-out: pIC50 (converted)).
For the compound `CCCNC(=O)C1CCC2(CC1)OOC1(CCCCC1)OO2`, the values for the IC50 (in the assay on HeLa (read-out: pIC50 (converted)); in assay [1] (read-out: pIC50 (converted))) were 117 µM and 102 µM, respectively.
On the same counts, the results for `CCCN(CCC)C(=O)CC[C@@H](C)[C@H]1CC[C@H]2[C@@H]3CC[C@@H]4C[C@]5(CC[C@]4(C)[C@H]3C[C@H](OC(C)=O)[C@]12C)OO[C@@]1(CC[C@@]2(C)[C@H](CC[C@@H]3[C@@H]2C[C@H](OC(C)=O)[C@]2(C)[C@@H]([C@H](C)CCC(=O)N(CCC)CCC)CC[C@@H]32)C1)OO5` are 105 µM and 47.9 µM.
On to `CCC1CCC2(CC1)OOC1(CC[C@@]3(C)[C@H](CC[C@@H]4[C@@H]3C[C@H](OC(C)=O)[C@]3(C)[C@@H]([C@@H](C)CCC(=O)NC)CC[C@@H]43)C1)OO2` (some centres undefined), for which the IC50 is 6.1 µM in the assay with HeLa (read-out: IC50), 6.76 µM in the assay on HeLa (read-out: pIC50 (converted)), 5 µM in assay [1] (read-out: IC50) and 4.47 µM in assay [1] (read-out: pIC50 (converted)).
